How the values were obtained:
Format in all cases: in vivo
[1] = tested on: rat model of bone cancer pain (MRMT-1 rat mammary gland carcinoma cells); assay: Weight-bearing difference in rat model of bone cancer pain (intra-tibial MRMT-1 cells); conditions: for weight-bearing difference between contralateral and ipsilateral paw: vs vehicle
Protocol: Adult female rats are given intra-tibial injections of MRMT-1 rat mammary gland carcinoma cells (3 μl, 10^7 cells/ml). These animals gradually develop mechanical hyperalgesia, mechanical allodynia (skin sensitivity to non-noxious stimuli) and hind limb sparing, beginning on day 12-14 following cell injection. COX-2 inhibitors, 5-methyl-2-(2′-chloro-6′-fluoroanilino)-phenylacetic acid (hereinafter referred to as COX189) (10 and 30 mg/kg p.o.) and valdecoxib (30 mg/kg p.o.) are administered as described below and the results obtained compared with vehicle treated controls.
Intra-tibial inoculation of MRMT-1 cells induces a time-dependent hypersensitivity in the ipsilateral limb, measured as a shift in body weight to the contralateral limb. The increase in weight-bearing difference between contralateral and ipsilateral paw (weight shift from the affected to the unaffected limb) is evident by day 14 post-inoculation and continues to increase until day 20.

[2] = tested on: rat model of bone cancer pain (MRMT-1 rat mammary gland carcinoma cells); assay: Mechanical allodynia (static and dynamic) in rat model of bone cancer pain; conditions: day 20; for static allodynia (punctuate stimulus), ipsilateral paw: 90 minutes after the last administration
Protocol: Adult female rats are given intra-tibial injections of MRMT-1 rat mammary gland carcinoma cells (3 μl, 10^7 cells/ml). These animals gradually develop mechanical hyperalgesia, mechanical allodynia (skin sensitivity to non-noxious stimuli) and hind limb sparing, beginning on day 12-14 following cell injection.

[3] = biological target: T1, COX-1 (Rattus norvegicus, UniProt Q63921); assay: Thromboxane B2 levels in samples from treated animals (COX-1 inhibition)
T1 construct: The levels of thromboxane B2 in the samples from COX189-treated animals; from tissue; host or cells: samples from treated rats
T1 sequence (Q63921 27-602): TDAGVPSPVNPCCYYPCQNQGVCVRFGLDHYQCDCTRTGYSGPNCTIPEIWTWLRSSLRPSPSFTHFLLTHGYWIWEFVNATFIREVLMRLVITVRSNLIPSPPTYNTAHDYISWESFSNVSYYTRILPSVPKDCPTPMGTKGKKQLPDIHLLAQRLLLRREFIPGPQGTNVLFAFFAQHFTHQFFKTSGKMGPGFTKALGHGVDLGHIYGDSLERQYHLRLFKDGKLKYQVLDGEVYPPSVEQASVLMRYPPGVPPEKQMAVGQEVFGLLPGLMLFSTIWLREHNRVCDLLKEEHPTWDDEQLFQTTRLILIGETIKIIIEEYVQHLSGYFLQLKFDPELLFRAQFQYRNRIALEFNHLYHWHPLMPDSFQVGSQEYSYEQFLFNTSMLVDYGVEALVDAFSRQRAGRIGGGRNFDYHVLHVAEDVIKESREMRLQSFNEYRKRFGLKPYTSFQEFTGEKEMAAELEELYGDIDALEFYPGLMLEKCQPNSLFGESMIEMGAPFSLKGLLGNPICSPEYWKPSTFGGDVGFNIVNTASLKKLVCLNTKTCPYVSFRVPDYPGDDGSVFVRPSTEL

[4] = tested on: rat model of bone cancer pain (MRMT-1 rat mammary gland carcinoma cells); assay: Radiologically observed structural changes and bone mineral density in rat model of bone cancer pain; conditions: for radiologically observed structural changes / loss of bone mineral density compared to vehicle treated animals: day 20
Protocol: Adult female rats are given intra-tibial injections of MRMT-1 rat mammary gland carcinoma cells (3 μl, 10^7 cells/ml).

SMILES | weight-bearing difference between contralateral and ipsilateral paw ([1]; 10 mg/kg p.o. repeated from day 10 post-inoculation, days 14, 17 and 20, measured 1 hour after drug administration) | weight-bearing difference between contralateral and ipsilateral paw ([1]; 30 mg/kg p.o. repeated from day 10 post-inoculation, days 14, 17 and 20, measured 1 hour after drug administration) | dose dependence of the effect on weight-bearing difference ([1]; 10 versus 30 mg/kg p.o.) | dynamic allodynia (light stroking of the skin), ipsilateral paw ([2]; 10 mg/kg p.o. repeated) | static allodynia (punctuate stimulus), ipsilateral paw ([2]; 10 mg/kg p.o. repeated) | dynamic allodynia (light stroking of the skin), ipsilateral paw ([2]; 30 mg/kg p.o. repeated) | static allodynia (punctuate stimulus), ipsilateral paw ([2]; 30 mg/kg p.o. repeated) | thromboxane B2 level, % of the levels in the vehicle-control animals ([3]; 10 mg/kg) | thromboxane B2 level, % of the levels in the vehicle-control animals ([3]; 30 mg/kg) | radiologically observed structural changes ([4]; 10 mg/kg repeated) | loss of bone mineral density compared to vehicle treated animals ([4]; 30 mg/kg repeated) | radiologically observed structural changes ([4]; 30 mg/kg repeated) | radiologically observed structural changes in an animal model of bone cancer pain ([4]; general statement, no dose given) | weight-bearing difference between contralateral and ipsilateral paw ([1]; 30 mg/kg p.o. repeated, day 20)
Cc1ccc(Nc2c(F)cccc2Cl)c(CC(=O)O)c1 [COX189, 5-methyl-2-(2′-chloro-6′-fluoroanilino)-phenylacetic acid] | significantly attenuates | significantly attenuates | not dose-dependent | tendency to reduce | significantly reverses | reaches statistical significance | significantly reverses | 87.4±17.7% | 64.5±8.0% | significantly inhibits | significantly inhibit | significantly inhibits | inhibit the radiologically observed structural changes | 
Cc1onc(-c2ccccc2)c1-c1ccc(S(N)(=O)=O)cc1 [valdecoxib, reference compound] |  |  |  |  |  | tendency to reduce | significantly reverses |  | 77.4±27.8% |  | no significant effect | no significant effect |  | significant
